In patent publication US10961222B2, “Chemical compound of isocitrate dehydrogenase inhibitor, and application thereof” (NANJING SANHOME PHARMACEUTICAL CO., LTD., priority 2016, dated 2021):

Target: T1, IDH2-R140Q mutant enzyme (Homo sapiens, UniProt P48735, R140Q)
T1 construct: purchased BPS 71100-1
T1 sequence (P48735 40-452 R140Q): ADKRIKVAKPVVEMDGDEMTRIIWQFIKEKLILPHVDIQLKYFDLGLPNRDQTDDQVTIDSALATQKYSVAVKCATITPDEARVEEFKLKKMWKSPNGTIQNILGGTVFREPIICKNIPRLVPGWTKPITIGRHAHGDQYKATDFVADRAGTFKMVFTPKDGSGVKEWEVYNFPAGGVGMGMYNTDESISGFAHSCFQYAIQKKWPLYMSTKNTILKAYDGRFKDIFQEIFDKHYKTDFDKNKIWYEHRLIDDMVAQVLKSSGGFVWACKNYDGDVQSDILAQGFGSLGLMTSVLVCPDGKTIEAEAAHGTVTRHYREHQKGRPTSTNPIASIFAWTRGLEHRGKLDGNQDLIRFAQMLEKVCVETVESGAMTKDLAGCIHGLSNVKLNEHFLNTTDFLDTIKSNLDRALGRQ
Test: Inhibitory activity of compounds on IDH2-R140Q enzyme in vitro (diaphorase/resazurin fluorescence)
Format: biochemical
Conditions: IDH2-R140Q, pre-incubated 16 h with enzyme and NADPH, reaction 1 h with α-ketoglutarate; read-out: R140Q IC50
Protocol: Instrument: SpectraMax M3 Multi-Mode Microplate Reader, purchased from Molecular Devices.
In a 96-well plate, 40 μL of reaction buffer containing 2× enzyme (IDH2-WT or IDH2-R140Q) and cofactor (NADP or NADPH) was added to each well of the compound group and the DMSO control group, and 40 μL of reaction buffer containing 2× cofactor (NADP or NADPH) was added to each well of the enzyme-free control group.
20 μL of reaction buffer containing 4× compound to be tested was added to each well of the compound group. The compound was pre-formulated into 200× mother liquor with 100% DMSO; in the final reaction system, the concentration of DMSO was 0.5%. 20 μL of reaction buffer containing DMSO was added to each well of the DMSO control group; in the final reaction system, the concentration of DMSO was 0.5%.
The compound was mixed well with the enzyme and cofactor, and pre-incubated at room temperature for 16 h;
20 μL of reaction buffer containing 4× reaction substrate was added to each well. After mixed uniformly, the mixture was reacted at room temperature for 1 h.
3× termination and detection solution (it was prepared with reaction buffer, the final concentration of Diaphorase was 0.015 mg/mL, and the final concentration of Resazurin was 0.03 mM) was prepared. 40 μL of 3× termination and detection solution was added to each well of the enzyme reaction system. After mixed uniformly, the mixture was incubated at room temperature for 10 min;
Fluorescence values of two wells were obtained and averaged and the activity rate (Activity %) was calculated. The calculation formula: Activity %=(Measured data−Subtract background)/(DMSO Control−Subtract background)×100, wherein “Measured data” is fluorescence value of the compound in the pre-incubated wells, “Subtract background” is the fluorescence value of the enzyme-free control wells, and “DMSO Control” is the fluorescence value in the DMSO pre-incubated wells. Data was processed by GraphPad Prism v5.0 software and fitted to obtain IC50.

IC50 | SMILES
22 nM | OC1CCCN(c2nc(Nc3ccnc(C(F)(F)F)c3)nc(-c3cccc(C(F)(F)F)n3)n2)C1 (stereo in doubt) [Example 9, 4-((R)-3-hydroxypiperidin-1-yl)-6-(6-(trifluoromethyl)pyridin-2-yl)-N-(2-(trifluoromethyl)pyridin-4-yl)-1,3,5-triazin-2-amine]
22 nM | FC(F)(F)c1cc(Nc2nc(-c3cccc(C(F)(F)F)n3)nc(N3CCCCC3)n2)ccn1 [Example 50, 4-(piperidin-1-yl)-6-(6-(trifluoromethyl)pyridin-2-yl)-N-(2-(trifluoromethyl)pyridin-4-yl)-1,3,5-triazin-2-amine]
26 nM | O[C@H]1CCN(c2nc(Nc3ccnc(C(F)(F)F)c3)nc(-c3cccc(C(F)(F)F)n3)n2)C1 [Example 18, 4-((S)-3-hydroxypyrrolidin-1-yl)-6-(6-(trifluoromethyl)pyridin-2-yl)-N-(2-(trifluoromethyl)pyridin-4-yl)-1,3,5-triazin-2-amine]
23 nM | N#C[C@@H]1CCN(c2nc(Nc3ccnc(C(F)(F)F)c3)nc(-c3cccc(C(F)(F)F)n3)n2)C1 [Example 52, 4-((R)-3-cyanopyrrolidin-1-yl)-6-(6-(trifluoromethyl)pyridin-2-yl)-N-(2-(trifluoromethyl)pyridin-4-yl)-1,3,5-triazin-2-amine]
25 nM | FC(F)(F)c1cc(Nc2nc(-c3cccc(C(F)(F)F)n3)nc(N3CCNCC3)n2)ccn1 [Example 5, 4-(Piperazin-1-yl)-6-(6-(trifluoromethyl)pyridin-2-yl)-N-(2-(trifluoromethyl)pyridin-4-yl)-1,3,5-triazin-2-amine]
21 nM | FC1(F)CCC(c2nc(Nc3ccnc(C(F)(F)F)c3)nc(-c3cccc(C(F)(F)F)n3)n2)CC1 [Example 26, 4-(4,4-Difluorocyclohexyl)-6-(6-(trifluoromethyl)pyridin-2-yl)-N-(2-(trifluoromethyl)pyridin-4-yl)-1,3,5-triazin-2-amine]
19 nM | O[C@H]1CCCN(c2nc(Nc3ccnc(C(F)(F)F)c3)nc(-c3cccc(C(F)(F)F)n3)n2)C1 [Example 10, 4-((S)-3-hydroxypiperidin-1-yl)-6-(6-(trifluoromethyl)pyridin-2-yl)-N-(2-(trifluoromethyl)pyridin-4-yl)-1,3,5-triazin-2-amine]
23 nM | O[C@@H]1CCN(c2nc(Nc3ccnc(C(F)(F)F)c3)nc(-c3cccc(C(F)(F)F)n3)n2)C1 [Example 17, 4-((R)-3-hydroxypyrrolidin-1-yl)-6-(6-(trifluoromethyl)pyridin-2-yl)-N-(2-(trifluoromethyl)pyridin-4-yl)-1,3,5-triazin-2-amine]
20 nM | FC(F)(F)c1cc(Nc2nc(-c3cccc(C(F)(F)F)n3)nc(N3CCCC(C(F)(F)F)C3)n2)ccn1 (stereo not drawn) [Example 7, 4-(3-(Trifluoromethyl)piperidin-1-yl)-6-(6-(trifluoromethyl)pyridin-2-yl)-N-(2-(trifluoromethyl)pyridin-4-yl)-1,3,5-triazin-2-amine]
15 nM | FC(F)(F)c1cc(Nc2nc(-c3cccc(C(F)(F)F)n3)nc(C3CCCCN3)n2)ccn1 (stereo not drawn) [Example 13, 4-(Piperidin-2-yl)-6-(6-(trifluoromethyl)pyridin-2-yl)-N-(2-(trifluoromethyl)pyridin-4-yl)-1,3,5-triazin-2-amine]
19 nM | CC(C)(O)C1CN(c2nc(Nc3ccnc(C(F)(F)F)c3)nc(-c3cccc(C(F)(F)F)n3)n2)C1 [Example 48, 4-(3-(2-propyl-2-ol)azetidin-1-yl)-6-(6-(trifluoromethyl)pyridin-2-yl)-N-(2-(trifluoromethyl)pyridin-4-yl)-1,3,5-triazin-2-amine]
15 nM | FC1(F)CC=C(c2nc(Nc3ccnc(C(F)(F)F)c3)nc(-c3cccc(C(F)(F)F)n3)n2)CC1 [Example 25, 4-(4,4-Difluorocyclohexyl-1-en-1-yl)-6-(6-(trifluoromethyl)pyridin-2-yl)-N-(2-(trifluoromethyl)pyridin-4-yl)-1,3,5-triazin-2-amine]
25 nM | OC1(C(F)(F)F)CCN(c2nc(Nc3ccnc(C(F)(F)F)c3)nc(-c3cccc(C(F)(F)F)n3)n2)CC1 [Example 21, 4-(4-Trifluoromethyl-4-hydroxypiperidin-1-yl)-6-(6-(trifluoromethyl)pyridin-2-yl)-N-(2-(trifluoromethyl)pyridin-4-yl)-1,3,5-triazin-2-amine]
25 nM | N#CC1CCCN(c2nc(Nc3ccnc(C(F)(F)F)c3)nc(-c3cccc(C(F)(F)F)n3)n2)C1 (stereo not drawn) [Example 12, 4-(3-Cyanopiperidin-1-yl)-6-(6-(trifluoromethyl)pyridin-2-yl)-N-(2-(trifluoromethyl)pyridin-4-yl)-1,3,5-triazin-2-amine]
18 nM | O=S1(=O)CCN(c2nc(Nc3ccnc(C(F)(F)F)c3)nc(-c3cccc(C(F)(F)F)n3)n2)CN1 [Example 8]
18 nM | FC1(F)CCN(c2nc(Nc3ccnc(C(F)(F)F)c3)nc(-c3cccc(C(F)(F)F)n3)n2)C1 [Example 15, 4-(3,3-Difluoropyrrolidin-1-yl)-6-(6-(trifluoromethyl)pyridin-2-yl)-N-(2-(trifluoromethyl)pyridin-4-yl)-1,3,5-triazin-2-amine]
14 nM | FC1CCN(c2nc(Nc3ccnc(C(F)(F)F)c3)nc(-c3cccc(C(F)(F)F)n3)n2)CC1 [Example 19, 4-(4-Fluoropiperidin-1-yl)-6-(6-(trifluoromethyl)pyridin-2-yl)-N-(2-(trifluoromethyl)pyridin-4-yl)-1,3,5-triazin-2-amine]
14 nM | FC1CCCN(c2nc(Nc3ccnc(C(F)(F)F)c3)nc(-c3cccc(C(F)(F)F)n3)n2)C1 (stereo not drawn) [Example 11, 4-(3-Fluoropiperidin-1-yl)-6-(6-(trifluoromethyl)pyridin-2-yl)-N-(2-(trifluoromethyl)pyridin-4-yl)-1,3,5-triazin-2-amine]
